The results in this text go back to patent US20220202739A1, “ENDOCANNABINOID MIMETIC AND ANTI-INFLAMMATORY COMPOUND CONTAINING COMPOSITIONS, METHODS OF PREPARATION AND USES THEREOF” (priority 2019, published 2022).

The subject of one assay is CNR1. The following applies: human skin keratinocytes, 10 uM, 24 hr. The procedure: (§1) Cell cultures: A human skin keratinocyte cell culture (or cultures) is obtained through the ThermoFisher Scientific (Waltham, Mass.) or Promocell GmbH (Heidelberg, Germany). The initial culture was selected from one of the following, C055C, 3C0647, or
(§2) C12003. The cell lines were derived from donors as follows: C055C: Single donor adult 3C0647: Single donor adult, lightly pigmented C12003: Single donor adult
(§3) Culture media: Cells were grown in ready to use Keratinocyte Growth Medium 2 from Promocell GmbH (Heidelberg, Germany) containing basal media supplemented with Bovine Pituitary Extract 0.004 ml/ml, Epidermal Growth Factor (recombinant human) 0.125 ng/ml, Insulin (recombinant human) 5 μg/ml, Hydrocortisone 0.33 μg/ml, Epinephrine 0.39 μg/ml, Transferrin (recombinant human) 10 μg/ml, and CaCl2 0.06 mM. […] All cultures were incubated at 37° C. with 5% CO2 in a humidified chamber.
(§4) Experimental phase: The experimental phase was carried out in accordance with the protocol set forth in the experimental phase section of Example 1.
(§5) The genes tested: Tested genes were the same as tested in Example 1.
(§6) Performance of custom microarray: Performance of custom microarray was carried out in accordance with the protocol set forth in the performance of custom microarray section of Example 1. […]

The test system of another assay is CNR2. The note with it: human skin keratinocytes, 10 uM, 24 hr. The procedure: as §1, §2, §3, §4, §5, §6
The next assay deals with FAAH. Put plainly: Gene expression custom microarray, human skin keratinocytes (Example 2): FAAH. The following applies: 10 uM, 24 hr. It is filed as cell-based. The procedure:
as §1, §2, §3, §4, §5, §6

The subject of another assay is MAGL. Put plainly: Gene expression custom microarray, human skin keratinocytes (Example 2): MAGL. The following applies: 10 uM, 24 hr. It is filed as cell-based. The procedure: as §1, §2, §3, §4, §5, §6
The test system of a further assay is IL1A. Put plainly: Gene expression custom microarray, human skin keratinocytes (Example 2): IL1A. The following applies: 10 uM, 24 hr. It is filed as cell-based. The method, then:
as §1, §2, §3, §4, §5, §6

A further assay concerns NFKB1. Put plainly: Gene expression custom microarray, human skin keratinocytes (Example 2): NFKB1. It is filed as cell-based. The following applies: 10 uM, 24 hr. The procedure: as §1, §2, §3, §4, §5, §6
The next assay has as its system PPARG. Put plainly: Gene expression custom microarray, human skin keratinocytes (Example 2): PPARG. It is filed as cell-based. The note with it: 10 uM, 24 hr. The method, then: as §1, §2, §3, §4, §5, §6
The subject of a further assay is PTGS1. Put plainly: Gene expression custom microarray, human skin keratinocytes (Example 2): PTGS1. It is filed as cell-based. The note with it: 10 uM, 24 hr. The procedure:
as §1, §2, §3, §4, §5, §6

Another assay deals with TRPA1. Put plainly: Gene expression custom microarray, human skin keratinocytes (Example 2): TRPA1. It is filed as cell-based. The following applies: 10 uM, 24 hr. The procedure:
as §1, §2, §3, §4, §5, §6

Another assay relates to TRPM8. Put plainly: Gene expression custom microarray, human skin keratinocytes (Example 2): TRPM8. It is filed as cell-based. The note with it: 10 uM, 24 hr. The method, then:
as §1, §2, §3, §4, §5, §6

Assay [1] has as its system TRPV1. Put plainly: Gene expression custom microarray, human skin keratinocytes (Example 2): TRPV1. It is filed as cell-based. The following applies: 10 uM, 24 hr. The procedure: as §1, §2, §3, §4, §5, §6
For assay [2], the system named is TRPV1. Put plainly: Gene expression custom microarray, human skin fibroblasts (Example 1): TRPV1. It is filed as cell-based. The note with it: 10 uM, 24 hr. The text has this: Cell cultures: A human skin fibroblast cell culture (or cultures) was obtained through the Coriell Cell Repository from the National Institute on Aging Cell Repository (Camden, N.J.), or Promocell GmbH (Heidelberg, Germany). The initial culture was selected from the following cell lines: AG13066, AG11557, AG11796 or GM03651E. The cell lines were derived from donors as follows:
Experimental phase: When the appropriate quantity of cells had been grown, they were detached as described above, but at the final step were seeded into each well of one or more 6 well dishes. Each well received 2 ml of the cell suspension so they were seeded equally. The dishes were returned to the incubator until 85-95% confluency was reached.
It is at this stage that all wells were rinsed in PBS after aspirating the growth media. The compound(s) to be tested were previously mixed into a suitable solvent (e.g., DMSO or ethanol) that can be diluted to the desired concentration of test compound (10 μl) in the culture wells without exceeding maximum solvent concentrations and adversely effecting cell viability, and mixed with basal media. NOTE: Standard maximum levels of solvent are 0.1% for DMSO and 0.5% for ETOH. The concentration of each test compound is found in Tables 1 & 2.
Every 2 wells on the 6 well plate served as a biological replicate for the purposes of RNA isolation and genetic expression evaluations making each 6 well dish an n=3 for the test compound(s) contained in the media. Negative control plates (no test compound(s) and only basal media) were also generated. The plates were returned to the incubator for 24 hrs.
At the end of the 24 hr time period, the plates were removed from the incubator, the test media aspirated, and the cells rinsed with PBS. RNA isolation is performed using the BioRad Aurum Total RNA Mini Kit (Hercules, Calif.) per manufacturer's protocol; which is described, in brief, below: • Add 350 μl of lysis buffer to each well. Pipet multiple times to ensure thorough lysis. Add lysed cells to the collection tube. • Add 350 μl of 70% ETOH to the collection tube and mix thoroughly. • Pipet the generated lysate onto the spin column placed in a new 2 ml tube. Centrifuge for 30 sec between 8,000 and 10,000 g. • Place the spin column containing the now bound RNA, in a new 2 ml tube. Add 700 μl of low stringency wash solution to the spin column. Centrifuge for 30 sec between 8,000 and 10,000 g. […] Allow 1 minute for saturation of the membrane and then centrifuge for 2 minutes to complete the RNA elution. • Quantify the quantity of RNA and store at −20 C° until use (no more than 1 month) […]

Consider `C=C(C)[C@@H]1CCC(C)=C[C@H]1c1c(O)cc(CCCCC)cc1O` [CBD, cannabidiol, reference compound], for which the “CNR1↑ gene expression, fold increase or decrease vs untreated cells” value in the assay on CNR1 is reported as 2.6 fold. In the assay with CNR2, the “CNR2↑ gene expression, fold increase or decrease vs untreated cells” value was 0 fold. The “FAAH↓ gene expression, fold increase or decrease vs untreated cells” value in the assay with FAAH is reported as −3.1 fold. The “MAGL↓ gene expression, fold increase or decrease vs untreated cells” value in the assay with MAGL was −2.3 fold. Further, the “IL1A↓ gene expression, fold increase or decrease vs untreated cells” value with IL1A was −1.8 fold. In the assay on NFKB1, the “NFKB1↓ gene expression, fold increase or decrease vs untreated cells” value is recorded as −1.3 fold. The “PPARG↑ gene expression, fold increase or decrease vs untreated cells” value in the assay with PPARG is reported as −4.7 fold. The “PTGS1↓ gene expression, fold increase or decrease vs untreated cells” value in the assay on PTGS1 is 2.3 fold. In addition, in the assay with TRPA1, the “TRPA1↑ gene expression, fold increase or decrease vs untreated cells” value was −1.7 fold. In addition, in the assay with TRPM8, the “TRPM8↑ gene expression, fold increase or decrease vs untreated cells” value is 2.5 fold. Besides, in the assay on TRPV1 [1], the “TRPV1↑ gene expression, fold increase or decrease vs untreated cells” value worked out at 2.2 fold.
Turning to `CCCCCCCCCCCCCCCC(=O)NCCO` [N-palmitoylethanolamide], in the assay on TRPV1 [2], the “TRPV1↑ gene expression, fold increase or decrease vs untreated cells” value is listed as −3.2 fold.
